Results as given in patent US11912693B2, “Compounds for modulating S1P1 activity and methods of using the same” (TREVENA, INC., priority 2017, dated 2024).

Tests used:
[1] = molecular target: T1, human sphingosine-1-phosphate receptor 1 (S1P1) (Homo sapiens (Human), UniProt P21453); assay: Inhibition of cAMP production (HTRF cAMP HiRange), S1P1 CHO-K1 cells; assay type: cell-based; settings: for hS1P1 cAMP pEC50: inhibition of cAMP production, S1P1 CHO-K1 cells; for Emax: CHO-K1, efficacy (SPAN) normalized to fingolimod, read-out: hS1P1 cAMP SPAN
Procedure, shortened: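 CHO-K1 cells stably co-expressing human S1P1 (C-terminal Prolink tag) and EA-β-arrestin2 were grown in AssayComplete Media 6 at 37° C. and 5% CO2, plated, and incubated overnight. Agonist-driven inhibition of intracellular cAMP was read by TR-FRET with the HTRF cAMP HiRange kit on a PheraStar reader. Potency is pEC50, and efficacy (SPAN) is normalized to fingolimod.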
Target sequence in this assay (P21453 whole entry, looked up): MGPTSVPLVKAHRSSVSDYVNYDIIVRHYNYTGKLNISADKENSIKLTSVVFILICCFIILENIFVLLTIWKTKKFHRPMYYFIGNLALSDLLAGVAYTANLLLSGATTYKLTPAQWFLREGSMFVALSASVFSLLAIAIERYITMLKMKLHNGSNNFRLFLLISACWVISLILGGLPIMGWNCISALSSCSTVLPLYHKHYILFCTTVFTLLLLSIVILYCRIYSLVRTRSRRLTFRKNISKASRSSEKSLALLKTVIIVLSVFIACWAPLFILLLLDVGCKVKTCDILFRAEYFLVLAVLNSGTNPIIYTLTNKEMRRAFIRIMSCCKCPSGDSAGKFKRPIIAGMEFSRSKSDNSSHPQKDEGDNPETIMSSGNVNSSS

[2] = molecular target: T1, human sphingosine-1-phosphate receptor 1 (S1P1); assay: β-Arrestin2 recruitment assay (PathHunter), S1P1 CHO-K1 cells; assay type: cell-based; settings: for hS1P1 B-arrestin2 pEC50: β-arrestin2 recruitment, S1P1 CHO-K1 cells; for Emax: CHO-K1, efficacy (SPAN) normalized to fingolimod, read-out: hS1P1 B-arrestin2 SPAN
Procedure, shortened: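 Enzyme-fragment complementation read-out: agonist-driven β-arrestin2 binding to ProLink-tagged human S1P1 in stable CHO-K1 cells restores β-galactosidase, measured 1 h at room temperature after a 60 min 37° C. compound incubation. Potency as pEC50, efficacy relative to fingolimod (SPAN).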
Target sequence in this assay (P21453 whole entry, looked up): as above
Target sequence in this assay (P32121 whole entry partner, looked up): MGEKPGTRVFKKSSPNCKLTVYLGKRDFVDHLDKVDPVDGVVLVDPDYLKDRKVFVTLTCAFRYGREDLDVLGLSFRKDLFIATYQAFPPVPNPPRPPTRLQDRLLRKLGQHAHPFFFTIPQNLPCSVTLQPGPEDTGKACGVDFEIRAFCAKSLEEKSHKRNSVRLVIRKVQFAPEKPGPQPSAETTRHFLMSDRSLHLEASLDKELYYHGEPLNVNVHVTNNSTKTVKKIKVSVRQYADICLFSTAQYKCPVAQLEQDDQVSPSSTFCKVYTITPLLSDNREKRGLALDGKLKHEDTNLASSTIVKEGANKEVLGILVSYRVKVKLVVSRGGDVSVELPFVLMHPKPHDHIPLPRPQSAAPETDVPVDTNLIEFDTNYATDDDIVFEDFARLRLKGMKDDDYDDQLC

| SMILES | hS1P1 cAMP pEC50 [1] | hS1P1 B-arrestin2 pEC50 [2] | Emax [1] [%] | Emax [2] [%] |
| --- | --- | --- | --- | --- |
| CC(C)n1ccc2cc(-c3noc(-c4ccc(F)cc4)n3)ccc21 [Compound 400, 5-(4-fluorophenyl)-3-(1-isopropyl-1H-indol-5-yl)-1,2,4-oxadiazole] | <6.5 | <5 | – | – |
| COc1ccccc1-c1csc(-c2cnc3c(ccn3C(C)C)c2)n1 [Compound 401, 2-(1-isopropyl-1H-pyrrolo[2,3-b]pyridin-5-yl)-4-(2-methoxyphenyl)thiazole] | <6.5 | <5 | – | – |
| CC(C)n1ccc2cc(-c3nc(-c4ccccc4F)cs3)cnc21 [Compound 402, 4-(2-fluorophenyl)-2-(1-isopropyl-1H-pyrrolo[2,3-b]pyridin-5-yl)thiazole] | >6.5 | <5 | – | – |
| CC(C)n1ccc2cc(-c3nc(-c4ccccc4F)cs3)ccc21 [Compound 403, 4-(2-fluorophenyl)-2-(1-isopropylindol-5-yl)thiazole] | <6.5 | <5 | < 75 | < 75 |
| CC(C)n1ccc2cc(-c3nc(-c4ccccc4C(F)(F)F)cs3)ccc21 [Compound 404, 2-(1-isopropylindol-5-yl)-4-[2-(trifluoromethyl)phenyl]thiazole] | <6.5 | <5 | > 75 | < 75 |
| COc1cccc(-c2csc(-c3ccc4c(ccn4C(C)C)c3)n2)c1 [Compound 405, 2-(1-isopropylindol-5-yl)-4-(3-methoxyphenyl)thiazole] | <6.5 | <5 | – | – |
| Cc1ccccc1-c1csc(-c2cnc3c(ccn3C(C)C)c2)n1 [Compound 407, 2-(1-isopropylpyrrolo[2,3-b]pyridin-5-yl)-4-(o-tolyl)thiazole] | <6.5 | <5 | – | – |
| CC(C)n1ccc2cc(-c3nc(-c4ccccc4C(F)(F)F)cs3)cnc21 [Compound 408, 2-(1-isopropylpyrrolo[2,3-b]pyridin-5-yl)-4-[2-(trifluoromethyl)phenyl]thiazole] | <6.5 | <5 | – | – |
| Cc1ccccc1-c1csc(-c2ccc3c(ccn3C(C)C)n2)n1 [Compound 409, 2-(1-isopropylpyrrolo[3,2-b]pyridin-5-yl)-4-(o-tolyl)thiazole] | <6.5 | <5 | – | – |
| COc1cccc(-c2csc(-c3ccc4c(ccn4C(C)C)n3)n2)c1 [Compound 410, 2-(1-isopropylpyrrolo[3,2-b]pyridin-5-yl)-4-(3-methoxyphenyl)thiazole] | <6.5 | <5 | – | – |
| COc1ccccc1-c1csc(-c2ccc3c(ccn3C(C)C)n2)n1 [Compound 411, 2-(1-isopropyl-1H-pyrrolo[3,2-b]pyridin-5-yl)-4-(2-methoxyphenyl)thiazole] | <6.5 | <5 | – | – |
| CC(C)n1ccc2nc(-c3nc(-c4ccccc4Br)cs3)ccc21 [Compound 412, 4-(2-bromophenyl)-2-(1-isopropyl-1H-pyrrolo[3,2-b]pyridin-5-yl)thiazole] | <6.5 | <5 | – | – |
| CC(C)n1nnc2cc(-c3nc(-c4ccccc4Br)no3)cnc21 [Compound 413, 3-(2-bromophenyl)-5-[3-(propan-2-yl)-3H-[1,2,3]triazolo[4,5-b]pyridin-6-yl]-1,2,4-oxadiazole] | >6.5 | >5 | – | – |
| Cc1ccncc1-c1noc(-c2cnc3c(c2)nnn3C(C)C)n1 [Compound 414, 4-methyl-3-{5-[3-(propan-2-yl)-3H-[1,2,3]triazolo[4,5-b]pyridin-6-yl]-1,2,4-oxadiazol-3-yl}pyridine] | >6.5 | <5 | – | – |
| CCC1(CC)CC(=O)c2cc(-c3nc(-c4ccc5c(c4)CC(=O)N5)no3)ccc2O1 [Compound 416, 5-(5-(2,2-diethyl-4-oxochroman-6-yl)-1,2,4-oxadiazol-3-yl)indolin-2-one] | >6.5 | >5 | – | – |

Second part, the compound after the results:

| hS1P1 cAMP pEC50 [1] | hS1P1 B-arrestin2 pEC50 [2] | Emax [1] [%] | Emax [2] [%] | SMILES |
| --- | --- | --- | --- | --- |
| >6.5 | >5 | > 75 | > 75 | Cc1cccc2oc(-c3ccc4c(c3)nnn4C(C)C)nc12 [Compound 418, 2-(1-isopropyl-1H-benzo[d][1,2,3]triazol-5-yl)-4-methylbenzo[d]oxazole] |
| >6.5 | >5 | > 75 | < 75 | Cc1ccc2oc(-c3ccc4c(c3)nnn4C(C)C)nc2c1 [Compound 419, 2-(1-isopropyl-1H-benzo[d][1,2,3]triazol-5-yl)-5-methylbenzo[d]oxazole] |
| >6.5 | <5 | > 75 | > 75 | Cc1ccc2nc(-c3ccc4c(c3)nnn4C(C)C)oc2c1 [Compound 420, 2-(1-isopropyl-1H-benzo[d][1,2,3]triazol-5-yl)-6-methylbenzo[d]oxazole] |
| <6.5 | <5 | > 75 | < 75 | Cc1cccc2nc(-c3ccc4c(c3)nnn4C(C)C)oc12 [Compound 421, 2-(1-isopropyl-1H-benzo[d][1,2,3]triazol-5-yl)-7-methylbenzo[d]oxazole] |
| >6.5 | <5 | > 75 | > 75 | COc1cccc2oc(-c3ccc4c(c3)nnn4C(C)C)nc12 [Compound 424, 2-(1-isopropyl-1H-benzo[d][1,2,3]triazol-5-yl)-4-methoxybenzo[d]oxazole] |
| >6.5 | <5 | > 75 | > 75 | COc1ccc2nc(-c3ccc4c(c3)nnn4C(C)C)oc2c1 [Compound 426, 2-(1-isopropyl-1H-benzo[d][1,2,3]triazol-5-yl)-6-methoxybenzo[d]oxazole] |
| <6.5 | <5 | > 75 | > 75 | CC(C)n1nnc2cc(-c3nc4c(Cl)cccc4o3)ccc21 [Compound 427, 4-chloro-2-(1-isopropyl-1H-benzo[d][1,2,3]triazol-5-yl)benzo[d]oxazole] |
| <6.5 | <5 | > 75 | > 75 | CC(C)n1nnc2cc(-c3nc4c(Br)cccc4o3)ccc21 [Compound 428, 4-bromo-2-(1-isopropylbenzotriazol-5-yl)-1,3-benzoxazole] |
| <6.5 | <5 | – | – | CC(C)n1nnc2cc(-c3nc4cccc(Br)c4o3)ccc21 [Compound 429, 7-bromo-2-(1-isopropyl-1H-benzo[d][1,2,3]triazol-5-yl)benzo[d]oxazole] |
| <6.5 | <5 | – | – | CCC1(CC)C/C(=N/O)c2cc(-c3nc(-c4cccnc4)no3)ccc2O1 [Compound 430, N-[(4Z)-2,2-diethyl-6-[3-(pyridin-3-yl)-1,2,4-oxadiazol-5-yl]-3,4-dihydro-2H-1-benzopyran-4-ylidene]hydroxylamine] |
| <6.5 | <5 | – | – | CCC1(CC)C/C(=N\O)c2cc(-c3nc(-c4cccnc4)no3)ccc2O1 [Compound 431, N-[(4E)-2,2-diethyl-6-[3-(pyridin-3-yl)-1,2,4-oxadiazol-5-yl]-3,4-dihydro-2H-1-benzopyran-4-ylidene]hydroxylamine] |
